Measurements as given in patent publication US11713344B2 (DONG-A ST CO., LTD., priority 2017, dated 2023).

Tests used:
[1] = target: Human GLP-1 receptors (Homo sapiens, UniProt P43220); test: GLP-1 receptor activation assay (CRE-luciferase reporter, CHO-K1)
[2] = target: Human glucagon receptors (Homo sapiens, UniProt P47871); test: Glucagon receptor activation assay (CRE-luciferase reporter, CHO-K1)
Sequence of Human glucagon receptors (P47871 26-477): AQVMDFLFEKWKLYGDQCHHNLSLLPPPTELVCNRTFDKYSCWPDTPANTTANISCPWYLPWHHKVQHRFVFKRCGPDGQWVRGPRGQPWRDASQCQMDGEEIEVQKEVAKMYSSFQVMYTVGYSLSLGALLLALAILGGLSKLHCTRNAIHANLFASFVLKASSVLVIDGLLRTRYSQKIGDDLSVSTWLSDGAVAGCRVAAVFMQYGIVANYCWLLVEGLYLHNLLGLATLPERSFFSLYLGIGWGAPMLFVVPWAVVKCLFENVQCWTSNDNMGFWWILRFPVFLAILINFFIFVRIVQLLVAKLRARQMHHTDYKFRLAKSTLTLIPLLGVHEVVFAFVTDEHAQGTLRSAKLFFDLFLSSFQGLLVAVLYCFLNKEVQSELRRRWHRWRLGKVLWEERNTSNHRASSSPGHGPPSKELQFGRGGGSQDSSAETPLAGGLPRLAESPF
Experimental: Then, the resulting increased luciferase activity was evaluated as a measurement of the effect on each receptor activation.
After 3 hours of transfection, medium was exchanged to Alpha Minimal Essential Medium (α-MEM) comprising 10% fetal bovine serum (FBS). Next day, the medium was exchanged to α-MEM comprising the analog of the present invention and 0.1% bovine serum albumin (BSA). After 6 hours, dual luciferase assay reagent was added in the same amount as the medium in which the cells were submerged, and firefly luciferase and Renilla luciferase activities were continuously measured. Firefly luciferase activity values were corrected against Renilla luciferase activity to yield transfection efficiency.

Sequence of Human GLP-1 receptors (P43220 24-463): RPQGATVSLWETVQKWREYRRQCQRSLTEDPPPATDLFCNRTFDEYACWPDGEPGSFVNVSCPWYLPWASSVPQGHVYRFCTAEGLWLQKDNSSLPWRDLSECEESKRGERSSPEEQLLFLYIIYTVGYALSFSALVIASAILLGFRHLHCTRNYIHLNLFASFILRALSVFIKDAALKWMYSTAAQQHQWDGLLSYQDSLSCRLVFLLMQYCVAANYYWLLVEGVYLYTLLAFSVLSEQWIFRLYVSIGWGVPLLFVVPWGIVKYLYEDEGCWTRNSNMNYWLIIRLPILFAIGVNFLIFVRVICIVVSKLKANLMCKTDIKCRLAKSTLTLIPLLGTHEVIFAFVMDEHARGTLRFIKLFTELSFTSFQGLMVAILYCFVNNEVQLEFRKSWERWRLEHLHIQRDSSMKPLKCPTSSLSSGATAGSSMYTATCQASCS

| EC50 [1] [nM] | EC50 [2] [nM] | SMILES |
| --- | --- | --- |
| 0.1 to 1 | > 1 | CSCC[C@H](NC(=O)[C@H](CC(C)C)NC(=O)[C@H](Cc1c[nH]c2ccccc12)NC(=O)[C@H](CCC(N)=O)NC(=O)[C@@H](NC(=O)[C@H](Cc1ccccc1)NC(=O)[C@H](CC(=O)O)NC(=O)[C@H](CCC(N)=O)NC(=O)[C@H](C)NC(=O)[C@H](CCCNC(=N)N)NC(=O)[C@H](CCCNC(=N)N)NC(=O)C(C)(C)NC(=O)[C@H](CC(=O)O)NC(=O)[C@H](CC(C)C)NC(=O)[C@H](Cc1ccc(O)cc1)NC(=O)[C@H](CCCCN)NC(=O)[C@H](CO)NC(=O)[C@H](CCCCNC(=O)COCCOCCNC(=O)COCCOCCNC(=O)CC[C@H](NC(=O)CCCCCCCCCCCCCCCCCCC(=O)O)C(=O)O)NC(=O)[C@H](CC(=O)O)NC(=O)[C@H](CO)NC(=O)[C@@H](NC(=O)[C@H](Cc1ccccc1)NC(=O)[C@@H](NC(=O)CNC(=O)[C@H](CCC(N)=O)NC(=O)C(C)(C)NC(=O)[C@@H](N)Cc1c[nH]cn1)[C@@H](C)O)[C@@H](C)O)C(C)C)C(=O)N[C@@H](CC(N)=O)C(=O)N[C@H](C(=O)N[C@@H](CCCCN)C(=O)O)[C@@H](C)O [Compound 44] |
| > 1 | > 1 | CSCC[C@H](NC(=O)[C@H](CC(C)C)NC(=O)[C@H](Cc1c[nH]c2ccccc12)NC(=O)[C@H](CCC(N)=O)NC(=O)[C@@H](NC(=O)[C@H](Cc1ccccc1)NC(=O)[C@H](CC(=O)O)NC(=O)[C@H](CCC(N)=O)NC(=O)[C@H](C)NC(=O)[C@H](CCCNC(=N)N)NC(=O)[C@H](CCCNC(=N)N)NC(=O)C(C)(C)NC(=O)[C@H](CC(=O)O)NC(=O)[C@H](CC(C)C)NC(=O)[C@H](Cc1ccc(O)cc1)NC(=O)[C@H](CCCCN)NC(=O)[C@H](CO)NC(=O)[C@H](CCCCNC(=O)COCCOCCNC(=O)COCCOCCNC(=O)CC[C@H](NC(=O)CCCCCCCCCCCCCCCCC(=O)O)C(=O)O)NC(=O)[C@H](CC(=O)O)NC(=O)[C@H](CO)NC(=O)[C@@H](NC(=O)[C@H](Cc1ccccc1)NC(=O)[C@@H](NC(=O)CNC(=O)[C@H](CCC(N)=O)NC(=O)C(C)(C)NC(=O)[C@@H](N)Cc1c[nH]cn1)[C@@H](C)O)[C@@H](C)O)C(C)C)C(=O)N[C@@H](CC(N)=O)C(=O)N[C@H](C(=O)N[C@@H](CCCCN)C(=O)O)[C@@H](C)O [Compound 43] |
| < 0.01 | < 0.01 | CCCCCCCCCCCCCCCCCC(=O)N[C@@H](CCC(=O)NCCOCCOCC(=O)NCCOCCOCC(=O)NCCCC[C@H](NC(=O)[C@H](CC(=O)O)NC(=O)[C@H](CO)NC(=O)[C@@H](NC(=O)[C@H](Cc1ccccc1)NC(=O)[C@@H](NC(=O)CNC(=O)[C@H](CCC(N)=O)NC(=O)C(C)(C)NC(=O)[C@@H](N)Cc1c[nH]cn1)[C@@H](C)O)[C@@H](C)O)C(=O)N[C@@H](CO)C(=O)N[C@@H](CCCCN)C(=O)N[C@@H](Cc1ccc(O)cc1)C(=O)N[C@@H](CC(C)C)C(=O)N[C@@H](CC(=O)O)C(=O)N[C@H]1CC(=O)N[C@@H](CC(C)C)C(=O)NCCCC[C@@H](C(=O)N[C@@H](CC(=O)O)C(=O)N[C@@H](Cc2ccccc2)C(=O)N[C@H](C(=O)N[C@@H](CCC(N)=O)C(=O)N[C@@H](Cc2c[nH]c3ccccc23)C(=O)N[C@@H](CC(C)C)C(=O)N[C@@H](CCSC)C(=O)N[C@@H](CC(N)=O)C(=O)N[C@H](C(=O)N[C@@H](CCCCN)C(=O)O)[C@@H](C)O)C(C)C)NC(=O)[C@H](C)NC(=O)[C@H](CCCNC(=N)N)NC(=O)[C@H](CCCNC(=N)N)NC1=O)C(=O)O [Compound 38, H-HAibQGTFTSDZSKYLDDRRAKDFVQWLMNTK-OH] |
| 0.1 to 1 | 0.1 to 1 | CSCC[C@H](NC(=O)[C@H](CC(C)C)NC(=O)[C@H](Cc1c[nH]c2ccccc12)NC(=O)[C@H](CCC(N)=O)NC(=O)[C@@H](NC(=O)[C@H](Cc1ccccc1)NC(=O)[C@H](CC(=O)O)NC(=O)[C@H](CCC(N)=O)NC(=O)[C@H](C)NC(=O)[C@H](CCCNC(=N)N)NC(=O)[C@H](CCCNC(=N)N)NC(=O)C(C)(C)NC(=O)[C@H](CC(=O)O)NC(=O)[C@H](CC(C)C)NC(=O)[C@H](Cc1ccc(O)cc1)NC(=O)[C@H](CCCCN)NC(=O)[C@H](CO)NC(=O)[C@H](CCCCNC(=O)COCCOCCNC(=O)COCCOCCNC(=O)CC[C@H](NC(=O)CCCCCCCCCCCCCCC(=O)NCC(=O)O)C(=O)O)NC(=O)[C@H](CC(=O)O)NC(=O)[C@H](CO)NC(=O)[C@@H](NC(=O)[C@H](Cc1ccccc1)NC(=O)[C@@H](NC(=O)CNC(=O)[C@H](CCC(N)=O)NC(=O)C(C)(C)NC(=O)[C@@H](N)Cc1c[nH]cn1)[C@@H](C)O)[C@@H](C)O)C(C)C)C(=O)N[C@@H](CC(N)=O)C(=O)N[C@H](C(=O)N[C@@H](CCCCN)C(=O)O)[C@@H](C)O [Compound 45] |
| 0.1 to 1 | > 1 | CSCC[C@H](NC(=O)[C@H](CC(C)C)NC(=O)[C@H](Cc1c[nH]c2ccccc12)NC(=O)[C@H](CCC(N)=O)NC(=O)[C@@H](NC(=O)[C@H](Cc1ccccc1)NC(=O)[C@H](CC(=O)O)NC(=O)[C@H](CCC(N)=O)NC(=O)[C@H](C)NC(=O)[C@H](CCCNC(=N)N)NC(=O)[C@H](CCCNC(=N)N)NC(=O)C(C)(C)NC(=O)[C@H](CC(=O)O)NC(=O)[C@H](CC(C)C)NC(=O)[C@H](Cc1ccc(O)cc1)NC(=O)[C@H](CCCCN)NC(=O)[C@H](CO)NC(=O)[C@H](CCCCNC(=O)COCCOCCNC(=O)COCCOCCNC(=O)CC[C@H](NC(=O)CCCCCCCCCCCCCCC(=O)O)C(=O)O)NC(=O)[C@H](CC(=O)O)NC(=O)[C@H](CO)NC(=O)[C@@H](NC(=O)[C@H](Cc1ccccc1)NC(=O)[C@@H](NC(=O)CNC(=O)[C@H](CCC(N)=O)NC(=O)C(C)(C)NC(=O)[C@@H](N)Cc1c[nH]cn1)[C@@H](C)O)[C@@H](C)O)C(C)C)C(=O)N[C@@H](CC(N)=O)C(=O)N[C@H](C(=O)N[C@@H](CCCCN)C(=O)O)[C@@H](C)O [Compound 42] |

The remaining lines, values behind:

| SMILES | EC50 [1] [nM] | EC50 [2] [nM] |
| --- | --- | --- |
| CCCCCCCCCCCCCCCCCC(=O)N[C@@H](CCC(=O)NCCOCCOCC(=O)NCCOCCOCC(=O)NCCOCCOCC(=O)NCCCC[C@H](NC(=O)[C@H](CC(=O)O)NC(=O)[C@H](CO)NC(=O)[C@@H](NC(=O)[C@H](Cc1ccccc1)NC(=O)[C@@H](NC(=O)CNC(=O)[C@H](CCC(N)=O)NC(=O)C(C)(C)NC(=O)[C@@H](N)Cc1c[nH]cn1)[C@@H](C)O)[C@@H](C)O)C(=O)N[C@@H](CO)C(=O)N[C@@H](CCCCN)C(=O)N[C@@H](Cc1ccc(O)cc1)C(=O)N[C@@H](CC(C)C)C(=O)N[C@@H](CC(=O)O)C(=O)N[C@H]1CCC(=O)NCCCC[C@@H](C(=O)N[C@@H](CC(=O)O)C(=O)N[C@@H](Cc2ccccc2)C(=O)N[C@H](C(=O)N[C@@H](CCC(N)=O)C(=O)N[C@@H](Cc2c[nH]c3ccccc23)C(=O)N[C@@H](CC(C)C)C(=O)N[C@@H](CCSC)C(=O)N[C@@H](CC(N)=O)C(=O)N[C@H](C(=O)N[C@@H](CCCCN)C(=O)O)[C@@H](C)O)C(C)C)NC(=O)[C@H](C)NC(=O)[C@H](CCCNC(=N)N)NC(=O)[C@H](CCCNC(=N)N)NC1=O)C(=O)O [Compound 20, H-HAibQGTFTSDZSKYLDERRAKDFVQWLMNTK-OH] | < 0.01 | < 0.01 |
| CCCCCCCCCCCCCCCCCC(=O)N[C@@H](CCC(=O)NCCOCCOCC(=O)NCCOCCOCC(=O)NCCCC[C@H](NC(=O)[C@H](CC(=O)O)NC(=O)[C@H](CO)NC(=O)[C@@H](NC(=O)[C@H](Cc1ccccc1)NC(=O)[C@@H](NC(=O)CNC(=O)[C@H](CCC(N)=O)NC(=O)C(C)(C)NC(=O)[C@@H](N)Cc1c[nH]cn1)[C@@H](C)O)[C@@H](C)O)C(=O)N[C@@H](CO)C(=O)N[C@@H](CCCCN)C(=O)N[C@@H](Cc1ccc(O)cc1)C(=O)N[C@@H](CC(C)C)C(=O)N[C@@H](CC(=O)O)C(=O)N[C@H]1CSCc2cccc(c2)CSC[C@@H](C(=O)N[C@@H](CC(=O)O)C(=O)N[C@@H](Cc2ccccc2)C(=O)N[C@H](C(=O)N[C@@H](CCC(N)=O)C(=O)N[C@@H](Cc2c[nH]c3ccccc23)C(=O)N[C@@H](CC(C)C)C(=O)N[C@@H](CCSC)C(=O)N[C@@H](CC(N)=O)C(=O)N[C@H](C(=O)N[C@@H](CCCCN)C(=O)O)[C@@H](C)O)C(C)C)NC(=O)[C@H](C)NC(=O)[C@H](CCCNC(=N)N)NC(=O)[C@H](CCCNC(=N)N)NC1=O)C(=O)O [Compound 22, H-HAibQGTFTSDZSKYLDCRRACDFVQWLMNTK-OH] | < 0.01 | < 0.01 |
| CCCCCCCCCCCCCCCCCC(=O)N[C@@H](CCC(=O)NCCOCCOCC(=O)NCCOCCOCC(=O)NCCCC[C@H](NC(=O)[C@H](CC(=O)O)NC(=O)[C@H](CC(C)C)NC(=O)[C@H](Cc1ccc(O)cc1)NC(=O)[C@H](CCCCN)NC(=O)[C@H](CO)NC(=O)[C@H](Cc1ccc(O)cc1)NC(=O)[C@H](CC(=O)O)NC(=O)[C@H](CO)NC(=O)[C@@H](NC(=O)[C@H](Cc1ccccc1)NC(=O)[C@@H](NC(=O)CNC(=O)[C@H](CCC(N)=O)NC(=O)C(C)(C)NC(=O)[C@@H](N)Cc1c[nH]cn1)[C@@H](C)O)[C@@H](C)O)C(=O)N[C@@H](CCCNC(=N)N)C(=O)N[C@@H](CCCNC(=N)N)C(=O)N[C@@H](C)C(=O)N[C@@H](CCC(N)=O)C(=O)N[C@@H](CC(=O)O)C(=O)N[C@@H](Cc1ccccc1)C(=O)N[C@H](C(=O)N[C@@H](CCC(N)=O)C(=O)N[C@@H](Cc1c[nH]c2ccccc12)C(=O)N[C@@H](CC(C)C)C(=O)N[C@@H](CCSC)C(=O)N[C@@H](CC(N)=O)C(=O)N[C@H](C(=O)N[C@@H](CCCCN)C(=O)O)[C@@H](C)O)C(C)C)C(=O)O [Compound 15, H-HAibQGTFTSDYSKYLDZRRAQDFVQWLMNTK-OH] | < 0.01 | < 0.01 |
| CCCCCCCCCCCCCCCCCC(=O)N[C@@H](CCC(=O)NCCOCCOCC(=O)NCCOCCOCC(=O)NCCCC[C@H](NC(=O)[C@H](CC(=O)O)NC(=O)[C@H](CO)NC(=O)[C@@H](NC(=O)[C@H](Cc1ccccc1)NC(=O)[C@@H](NC(=O)CNC(=O)[C@H](CCC(N)=O)NC(=O)C(C)(C)NC(=O)[C@@H](N)Cc1c[nH]cn1)[C@@H](C)O)[C@@H](C)O)C(=O)N[C@@H](CO)C(=O)N[C@@H](CCCCN)C(=O)N[C@@H](Cc1ccc(O)cc1)C(=O)N[C@@H](CC(C)C)C(=O)N[C@@H](CC(=O)O)C(=O)N[C@H]1CC(=O)NCCCC[C@@H](C(=O)N[C@@H](CC(=O)O)C(=O)N[C@@H](Cc2ccccc2)C(=O)N[C@H](C(=O)N[C@@H](CCC(N)=O)C(=O)N[C@@H](Cc2c[nH]c3ccccc23)C(=O)N[C@@H](CC(C)C)C(=O)N[C@@H](CCSC)C(=O)N[C@@H](CC(N)=O)C(=O)N[C@H](C(=O)N[C@@H](CCCCN)C(=O)O)[C@@H](C)O)C(C)C)NC(=O)[C@H](C)NC(=O)[C@H](CCCNC(=N)N)NC(=O)[C@H](CCCNC(=N)N)NC1=O)C(=O)O [Compound 26, H-HAibQGTFTSDZSKYLDDRRAKDFVQWLMNTK-OH] | < 0.01 | < 0.01 |
